# In PMC11320742, “Radiosynthesis and Evaluation of 11C-Labeled Isoindolone-Based Positive Allosteric Modulators for Positron Emission Tomography Imaging of Metabotropic Glutamate Receptor 2” (ACS Pharmacology & Translational Science, 2024):
# Assays:
# mGluR2 [1] = target: T1, mGluR2 (Rattus norvegicus, UniProt P31421); test: In vitro ARG of [3H]AZ12559322 on rat brain tissues (binding data, Figure S1); settings: determined by in vitro ARG of [3H]AZ12559322 on rat brain tissues
# T1 construct: the brain sections of rat or cynomolgus monkey brains in 20 μm thickness; from tissue; host or cells: rat brain sections
# Procedure: To determine the binding affinities, saturation binding experiments of the corresponding tritiated ligands were conducted on CHO membranes stably expressing mGluR2. […] The blood–brain barrier permeability (log BB) values of 3a–3c were predicted in the range of −0.14 to −0.51. Multiparameter optimization (MPO) is a valuable tool to evaluate the BBB permeability of drug candidates. In general, CNS MPO scores on a scale between 0 and 6, and the score value ≥4.0 is highly desirable. […] Therefore, AZ12559322 was selected as the most promising mGluR2 PAM for further ADME profiling. To investigate the selectivity of AZ12559322 for mGluR2, further counter-screening of AZ12559322 was conducted, and the results are detailed in Figure 3C.
# The tritium-labeled ligand [^3H]AZ12559322 for ARG studies was prepared by AstraZeneca.[23] Briefly, the brain sections of rat or cynomolgus monkey brains in 20 μm thickness were warmed to room temperature in a vacuum chamber over 3 h on the day of the experiment.[52] All sections were incubated in 50 mM Tris HCl, 5 mM MgCl2, and 0.9% NaCl (pH 7.4) for 5 min at room temperature. The brain sections were dried and incubated with [^3H]AZ12559322 in the above buffer for 30 min at ambient temperature. […]
# CYP2C19 = CYP2C19 (Homo sapiens, UniProt P33261); test: CYP inhibition; assay type: in vitro ADME
# CYP2C9 = CYP2C9 (Homo sapiens, UniProt P11712); test: CYP inhibition; assay type: in vitro ADME
# CYP1A2 = target: T2, CYP1A2 (Homo sapiens, UniProt P05177); test: CYP inhibition; assay type: in vitro ADME
# T2 sequence (P05177 1-516): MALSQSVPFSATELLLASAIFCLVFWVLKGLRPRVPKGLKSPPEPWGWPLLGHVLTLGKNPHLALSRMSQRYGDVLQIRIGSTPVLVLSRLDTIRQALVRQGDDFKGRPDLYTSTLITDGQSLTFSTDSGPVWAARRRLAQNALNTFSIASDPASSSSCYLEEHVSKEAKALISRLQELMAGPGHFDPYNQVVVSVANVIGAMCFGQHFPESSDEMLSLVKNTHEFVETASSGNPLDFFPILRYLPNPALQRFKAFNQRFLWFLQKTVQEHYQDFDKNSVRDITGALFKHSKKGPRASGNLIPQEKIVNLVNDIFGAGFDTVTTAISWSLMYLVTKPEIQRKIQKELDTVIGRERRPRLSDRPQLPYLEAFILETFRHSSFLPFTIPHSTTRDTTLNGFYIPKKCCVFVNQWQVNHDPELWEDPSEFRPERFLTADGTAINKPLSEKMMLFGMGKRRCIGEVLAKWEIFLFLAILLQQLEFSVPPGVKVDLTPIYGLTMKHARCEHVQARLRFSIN
# mGluR2 [2] = target: T3, mGluR2 (Homo sapiens, UniProt Q14416); test: Saturation binding of tritiated ligands on CHO membranes stably expressing mGluR2; settings: for Ki: mGluR2, CHO membranes; for Kd: saturation binding of tritiated ligand, CHO membranes expressing mGluR2
# T3 construct: expressed in transfected cells; host or cells: CHO
# Procedure: (§1) To determine the binding affinities, saturation binding experiments of the corresponding tritiated ligands were conducted on CHO membranes stably expressing mGluR2. […] Multiparameter optimization (MPO) is a valuable tool to evaluate the BBB permeability of drug candidates. […] To investigate the selectivity of AZ12559322 for mGluR2, further counter-screening of AZ12559322 was conducted, and the results are detailed in Figure 3C.
# hERG channel = hERG channel (Homo sapiens, UniProt Q12809); test: hERG channel inhibition; assay type: biochemical
# CYP2D6 = CYP2D6 (Homo sapiens, UniProt P10635); test: CYP inhibition; assay type: in vitro ADME
# CYP3A4 = CYP3A4 (Homo sapiens, UniProt P08684); test: CYP inhibition; assay type: in vitro ADME
# mGluR6 = mGluR6 (Homo sapiens, UniProt O15303); test: Counter-screening, mGluR family selectivity; assay type: biochemical
# Procedure: as §1
# mGluR8 = mGluR8 (Homo sapiens, UniProt O00222); test: Counter-screening, mGluR family selectivity; assay type: biochemical
# Procedure: as §1
# mGluR4 = mGluR4 (Homo sapiens, UniProt Q14833); test: Counter-screening, mGluR family selectivity; assay type: biochemical
# Procedure: as §1
# mGluR3 = mGluR3 (Homo sapiens, UniProt Q14832); test: Counter-screening, mGluR family selectivity; assay type: biochemical
# Procedure: as §1
# mGluR7 = mGluR7 (Homo sapiens, UniProt Q14831); test: Counter-screening, mGluR family selectivity; assay type: biochemical
# Procedure: as §1
# mGluR2 [3] = target: T3, mGluR2; test: Counter-screening, mGluR family selectivity; assay type: biochemical
# Procedure: as §1
# mGluR1 = mGluR1 (Homo sapiens, UniProt Q13255); test: Counter-screening, mGluR family selectivity; assay type: biochemical
# Procedure: as §1
# mGluR5 = mGluR5 (Homo sapiens, UniProt P41594); test: Counter-screening, mGluR family selectivity; assay type: biochemical
# Procedure: as §1
# pKa = assay type: physicochemical
# Procedure: as §1
# mGluR2 [4] = test: In vitro autoradiography of NHP prefrontal cortex with [3H]AZ12559322 (blocking); assay type: binding, cynomolgus monkey; settings: blocker 5 μM, n = 2
# Procedure: (§2) Encouraged by the promising ligand–protein binding ability of AZ12559322, in vitro autoradiography (ARG) studies were conducted on rat brain tissues to assess the binding specificity of [^3H]AZ12559322. Consistent with previous reports of the regional mGluR2 expression in the rat brain,[45] […] Subsequently, in vitro ARG studies with brain regions from cynomolgus monkeys were conducted to confirm the specificity in higher species. […] Subsequent immunohistochemical analyses verified that […] was binding to the regions with high expression of mGluR2 (see Figure S2 in the Supporting Information). Altogether, these studies indicated high mGluR2 in vitro binding specificity of AZ12559322 on rat and NHP brain tissue sections and positive allosteric mechanism of action.
# Figure 6 In vitro autoradiography and quantitative analyses of NHP prefrontal cortex with [^3H]AZ12559322 (n = 2). Total binding and nonspecific binding in the presence of 5 μM of LY-487379 or AZD8418. *p < 0.05.
# The tritium-labeled ligand [^3H]AZ12559322 for ARG studies was prepared by AstraZeneca.[23] Briefly, the brain sections of rat or cynomolgus monkey brains in 20 μm thickness were warmed to room temperature in a vacuum chamber over 3 h on the day of the experiment.[52] All sections were incubated in 50 mM Tris HCl, 5 mM MgCl2, and 0.9% NaCl (pH 7.4) for 5 min at room temperature. […]
# mGluR2 [5] = test: In situ [35S]GTPγS autoradiography in NHP brain tissue; assay type: biochemical; settings: in the presence of agonist LY379268
# Procedure: as §2
# (§3) The in situ GTPγS ARG studies in the rat and NHP brain tissues were conducted according to previous reports.[54] Briefly, […] thick brain tissue sections were incubated twice in assay buffer, pH 7.5 for 10 min at 25 °C and once in assay buffer with 2 mM GDP for 15 min at 25 °C. Slides were then incubated in an assay buffer containing 0.04 nM [^35S]GTPgS in the presence or absence of LY379268 and AZD8529 for 2 h at 25 °C. The incubation was stopped by washing twice for 3 min in ice-cold 50 mM Tris–HCl and a quick dip in ice-cold distilled water. […] Films were developed by standard techniques, digitized, and analyzed.
# mGluR2 [6] = target: T1, mGluR2; test: In situ [35S]GTPγS autoradiography in rat brain tissue; assay type: biochemical; settings: in the presence of agonist LY379268
# Procedure: as §2, §3
# mGluR2 [7] = target: T1, mGluR2; test: In vitro autoradiography of rat brain tissue with [3H]AZ12559322 (baseline and blockade); assay type: binding; settings: baseline; high in prefrontal cortex, cerebral cortex, hippocampus; low in thalamus
# Procedure: as §2
# Figure 5 In vitro autoradiography of rat brain tissue with [^3H]AZ12559322. (A) Autoradiograms after incubation with either [^3H]AZ12559322 only (baseline) or 10 μM AZ12522721 (blockade). (B) Quantitative analyses of the autoradiograms under baseline and blocking conditions (n = 4). ***p ≤ 0.001, ns = nonsignificant.
# The tritium-labeled ligand [^3H]AZ12559322 for ARG studies was prepared by AstraZeneca.[23] Briefly, the brain sections of rat or cynomolgus monkey brains in 20 μm thickness were warmed to room temperature in a vacuum chamber over 3 h on the day of the experiment.[52] […]
# mGluR2 [8] = test: PET imaging in NHP; assay type: in vivo; settings: cynomolgus monkey, IV injection, baseline
# Procedure: With all three radioligands in hand, we sought to evaluate the feasibility of these radioligands for quantifying mGluR2 PAM occupancy in the NHP brain. PET imaging studies of [^11C]AZ12559322, [^11C]AZ12592068, and [^11C]AZ12588953 were performed in a cynomolgus monkey. Radioactivity was acquired for 120 min after IV injection of the respective radioligand. […] Further structural modification of these isoindolone derivatives is necessary to enhance brain exposure and provide a suitable radioligand for in vivo imaging.
# PET imaging studies were conducted in one anesthetized healthy cynomolgus monkey and are fully detailed in Dahl et al.[53] The study was approved by the Stockholm Animal Research Ethical Committee (Dnr. N245/04). […] The head was immobilized with a fixation device, and body temperature was maintained by Bair Hugger model 505 (Arizant Healthcare, MN, USA) and continuously monitored by an esophageal thermometer. ECG, heart rate, blood pressure, respiratory rate, and oxygen saturation were continuously monitored throughout the experiments. […] Radioactivity in the brain was measured continuously for 123 min using the high-resolution research tomograph (HRRT; Siemens Molecular Imaging, Knoxville, TN, USA) according to a preprogrammed series of 34 frames.
# T1 sequence (P31421 19-872): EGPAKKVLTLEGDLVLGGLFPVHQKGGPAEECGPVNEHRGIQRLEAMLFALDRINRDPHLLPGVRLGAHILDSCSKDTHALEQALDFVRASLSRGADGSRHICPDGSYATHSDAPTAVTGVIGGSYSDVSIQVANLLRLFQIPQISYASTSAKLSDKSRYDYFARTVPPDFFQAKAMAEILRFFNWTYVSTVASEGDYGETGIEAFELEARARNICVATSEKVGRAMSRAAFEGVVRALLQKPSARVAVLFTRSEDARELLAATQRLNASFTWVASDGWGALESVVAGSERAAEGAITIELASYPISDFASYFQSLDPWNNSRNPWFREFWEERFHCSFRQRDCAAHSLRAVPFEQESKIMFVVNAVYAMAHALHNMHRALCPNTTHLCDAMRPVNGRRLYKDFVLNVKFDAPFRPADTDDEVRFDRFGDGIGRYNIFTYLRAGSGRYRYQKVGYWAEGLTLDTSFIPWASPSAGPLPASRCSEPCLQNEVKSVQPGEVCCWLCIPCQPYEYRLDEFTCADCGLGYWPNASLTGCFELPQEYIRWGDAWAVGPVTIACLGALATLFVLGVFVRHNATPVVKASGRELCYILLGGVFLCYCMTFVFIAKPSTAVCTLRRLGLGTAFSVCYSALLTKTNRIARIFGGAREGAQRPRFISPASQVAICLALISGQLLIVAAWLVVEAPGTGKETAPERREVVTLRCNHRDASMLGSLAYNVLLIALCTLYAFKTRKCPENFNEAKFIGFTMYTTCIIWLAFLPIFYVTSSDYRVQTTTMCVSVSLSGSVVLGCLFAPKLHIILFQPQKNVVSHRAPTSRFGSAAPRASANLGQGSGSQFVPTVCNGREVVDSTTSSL
# T3 sequence (Q14416 19-872): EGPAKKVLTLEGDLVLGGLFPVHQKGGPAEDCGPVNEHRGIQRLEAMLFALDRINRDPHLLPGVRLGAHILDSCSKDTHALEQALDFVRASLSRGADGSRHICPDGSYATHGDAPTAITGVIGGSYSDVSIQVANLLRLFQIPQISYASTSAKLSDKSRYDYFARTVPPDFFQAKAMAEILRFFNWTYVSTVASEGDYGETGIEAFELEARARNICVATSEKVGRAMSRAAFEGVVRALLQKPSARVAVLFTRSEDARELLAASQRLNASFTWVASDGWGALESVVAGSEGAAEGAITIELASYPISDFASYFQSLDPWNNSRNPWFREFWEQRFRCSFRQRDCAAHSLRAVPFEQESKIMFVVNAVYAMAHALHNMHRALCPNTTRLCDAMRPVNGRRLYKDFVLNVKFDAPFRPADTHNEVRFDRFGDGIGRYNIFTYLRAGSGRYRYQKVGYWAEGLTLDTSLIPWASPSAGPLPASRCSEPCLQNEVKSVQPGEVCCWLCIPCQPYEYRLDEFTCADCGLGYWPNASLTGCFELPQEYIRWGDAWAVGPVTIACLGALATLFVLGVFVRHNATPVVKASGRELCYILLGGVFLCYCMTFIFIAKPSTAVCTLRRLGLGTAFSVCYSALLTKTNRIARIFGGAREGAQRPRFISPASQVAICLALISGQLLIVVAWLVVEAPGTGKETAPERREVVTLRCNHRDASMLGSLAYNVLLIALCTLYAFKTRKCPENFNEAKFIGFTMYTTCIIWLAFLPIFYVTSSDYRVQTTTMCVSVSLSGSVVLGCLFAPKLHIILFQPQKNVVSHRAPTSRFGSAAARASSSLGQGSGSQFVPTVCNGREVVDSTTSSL
# Chain of CYP2D6 (P10635 whole entry): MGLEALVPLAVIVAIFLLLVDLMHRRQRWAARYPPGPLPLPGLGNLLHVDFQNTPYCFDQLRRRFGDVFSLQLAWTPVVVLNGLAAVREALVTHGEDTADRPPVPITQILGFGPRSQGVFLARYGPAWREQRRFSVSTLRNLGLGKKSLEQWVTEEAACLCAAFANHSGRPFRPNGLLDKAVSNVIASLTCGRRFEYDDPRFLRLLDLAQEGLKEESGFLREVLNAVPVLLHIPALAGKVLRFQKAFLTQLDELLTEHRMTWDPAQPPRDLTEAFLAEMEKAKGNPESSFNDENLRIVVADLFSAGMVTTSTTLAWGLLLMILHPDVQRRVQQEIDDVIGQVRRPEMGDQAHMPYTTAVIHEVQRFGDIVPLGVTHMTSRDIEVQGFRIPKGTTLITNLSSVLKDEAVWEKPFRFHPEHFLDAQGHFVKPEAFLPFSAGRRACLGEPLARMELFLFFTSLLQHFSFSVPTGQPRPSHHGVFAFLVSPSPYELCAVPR
# Chain of CYP2C19 (P33261 whole entry): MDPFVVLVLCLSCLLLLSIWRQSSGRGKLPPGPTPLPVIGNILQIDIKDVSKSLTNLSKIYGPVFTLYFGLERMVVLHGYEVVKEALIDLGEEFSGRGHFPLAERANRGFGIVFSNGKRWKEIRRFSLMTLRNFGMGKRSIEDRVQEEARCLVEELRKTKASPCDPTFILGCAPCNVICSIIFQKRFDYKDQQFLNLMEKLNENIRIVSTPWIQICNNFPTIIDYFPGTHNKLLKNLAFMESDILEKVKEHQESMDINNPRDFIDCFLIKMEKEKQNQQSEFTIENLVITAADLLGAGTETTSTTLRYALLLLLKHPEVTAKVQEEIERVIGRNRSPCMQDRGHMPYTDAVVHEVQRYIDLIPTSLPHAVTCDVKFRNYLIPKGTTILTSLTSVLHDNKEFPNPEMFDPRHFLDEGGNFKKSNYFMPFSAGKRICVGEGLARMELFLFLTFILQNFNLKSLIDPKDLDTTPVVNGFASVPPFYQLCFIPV
# Chain of CYP2C9 (P11712 whole entry): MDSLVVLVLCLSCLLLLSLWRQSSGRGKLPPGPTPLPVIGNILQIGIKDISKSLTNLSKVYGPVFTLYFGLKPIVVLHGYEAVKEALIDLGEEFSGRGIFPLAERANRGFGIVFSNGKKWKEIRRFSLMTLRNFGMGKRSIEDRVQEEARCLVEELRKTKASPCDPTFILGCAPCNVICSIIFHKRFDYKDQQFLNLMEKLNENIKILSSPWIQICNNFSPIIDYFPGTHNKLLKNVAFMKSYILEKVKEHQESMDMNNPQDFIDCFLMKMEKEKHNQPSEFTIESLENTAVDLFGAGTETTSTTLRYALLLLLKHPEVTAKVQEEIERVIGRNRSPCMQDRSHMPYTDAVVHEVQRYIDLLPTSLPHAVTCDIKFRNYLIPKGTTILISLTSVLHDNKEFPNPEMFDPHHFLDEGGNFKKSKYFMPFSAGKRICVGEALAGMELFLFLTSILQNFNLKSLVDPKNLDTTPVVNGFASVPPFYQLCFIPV
# Chain of CYP3A4 (P08684 whole entry): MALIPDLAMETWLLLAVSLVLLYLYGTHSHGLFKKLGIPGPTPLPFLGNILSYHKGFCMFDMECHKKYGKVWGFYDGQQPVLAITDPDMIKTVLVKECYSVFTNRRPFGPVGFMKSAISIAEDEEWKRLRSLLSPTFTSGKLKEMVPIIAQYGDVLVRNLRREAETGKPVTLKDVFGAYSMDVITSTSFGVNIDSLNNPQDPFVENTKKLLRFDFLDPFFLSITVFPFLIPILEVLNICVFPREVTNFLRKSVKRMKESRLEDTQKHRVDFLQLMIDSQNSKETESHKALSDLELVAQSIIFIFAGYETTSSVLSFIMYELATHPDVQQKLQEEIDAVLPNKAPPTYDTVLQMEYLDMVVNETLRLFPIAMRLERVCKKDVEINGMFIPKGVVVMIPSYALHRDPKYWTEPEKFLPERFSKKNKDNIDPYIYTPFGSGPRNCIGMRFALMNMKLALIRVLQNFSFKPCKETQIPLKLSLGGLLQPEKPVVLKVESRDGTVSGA
# Chain of mGluR1 (Q13255 19-1194): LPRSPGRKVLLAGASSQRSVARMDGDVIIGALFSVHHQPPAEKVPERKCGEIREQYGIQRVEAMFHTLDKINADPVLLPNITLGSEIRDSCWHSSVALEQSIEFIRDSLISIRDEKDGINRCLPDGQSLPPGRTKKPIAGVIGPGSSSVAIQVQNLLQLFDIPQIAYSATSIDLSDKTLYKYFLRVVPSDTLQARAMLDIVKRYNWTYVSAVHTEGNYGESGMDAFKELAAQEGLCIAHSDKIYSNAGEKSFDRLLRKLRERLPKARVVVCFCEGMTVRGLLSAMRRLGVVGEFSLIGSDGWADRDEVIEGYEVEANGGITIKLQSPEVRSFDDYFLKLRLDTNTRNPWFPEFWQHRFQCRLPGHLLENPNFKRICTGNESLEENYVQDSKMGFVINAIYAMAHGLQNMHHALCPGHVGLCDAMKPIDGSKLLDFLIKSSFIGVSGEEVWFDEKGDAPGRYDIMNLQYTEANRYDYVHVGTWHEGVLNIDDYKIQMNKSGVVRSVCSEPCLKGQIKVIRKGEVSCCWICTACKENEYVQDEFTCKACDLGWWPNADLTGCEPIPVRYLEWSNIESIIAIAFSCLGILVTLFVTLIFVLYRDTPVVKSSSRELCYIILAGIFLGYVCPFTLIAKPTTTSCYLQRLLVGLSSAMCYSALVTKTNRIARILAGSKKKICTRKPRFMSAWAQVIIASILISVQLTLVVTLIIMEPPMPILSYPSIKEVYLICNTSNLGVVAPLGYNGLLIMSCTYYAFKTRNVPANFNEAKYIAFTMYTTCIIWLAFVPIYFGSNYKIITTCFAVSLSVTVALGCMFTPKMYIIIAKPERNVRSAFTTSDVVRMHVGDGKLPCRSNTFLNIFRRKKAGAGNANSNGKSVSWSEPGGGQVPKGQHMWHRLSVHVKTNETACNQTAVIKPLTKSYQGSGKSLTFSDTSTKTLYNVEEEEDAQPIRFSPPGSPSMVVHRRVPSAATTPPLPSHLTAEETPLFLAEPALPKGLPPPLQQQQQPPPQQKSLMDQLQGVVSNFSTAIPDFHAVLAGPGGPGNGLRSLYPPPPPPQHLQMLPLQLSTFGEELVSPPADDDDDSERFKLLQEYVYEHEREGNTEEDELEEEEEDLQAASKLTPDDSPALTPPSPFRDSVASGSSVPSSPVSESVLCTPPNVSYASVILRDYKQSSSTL
smiles,measurement,setting,value
"Cc1cc(-c2cccc(NS(C)(=O)=O)c2)cc2c1C(=O)N(C(C)C)C2 [AZ12559322, N-[3-(2-isopropyl-7-methyl-1-oxo-2,3-dihydro-1H-isoindol-5-yl)phenyl]methanesulfonamide]",Kd,mGluR2 [1],1.31 nM
same,inhibition at 1 µM,CYP2C19; at 1 μM,13%
same,inhibition at 10 µM,CYP2C19; at 10 μM,51%
same,inhibition at 1 µM,CYP2C9; at 1 μM,8%
same,inhibition at 10 µM,CYP2C9; at 10 μM,46%
same,inhibition at 10 µM,CYP1A2,37%
same,Ki,mGluR2 [2],2.68 nM
same,Kd,mGluR2 [2],11 nM
same,Specific binding%,mGluR2 [2]; specific binding to mGluR2 in vitro,89%
same,IC50,hERG channel,9350 nM
same,inhibition at 1 µM,CYP2D6; at 1 μM,0%
same,inhibition at 10 µM,CYP2D6; at 10 μM,11%
same,inhibition at 1 µM,CYP3A4; at 1 μM,0%
same,inhibition at 10 µM,CYP3A4; at 10 μM,12%
same,IC50,mGluR6,> 30000 nM
same,IC50,mGluR8,> 20300 nM
same,IC50,mGluR4,> 23600 nM
same,IC50,mGluR3,> 25000 nM
same,IC50,mGluR7,> 30000 nM
same,IC50,mGluR2 [3],4.7 nM
same,Selectivity for mGluR2 over all other mGluR subtypes,mGluR2 [3]; against all other mGluRs,> 4000 fold
same,IC50,mGluR1,> 30000 nM
same,IC50,mGluR5,> 30000 nM
same,pKa,pKa,8.46
"Cc1cc(-c2cccc(NS(C)(=O)=O)c2)cc2c1C(=O)N(C1CCC1)C2 [AZ12588953, N-(3-(2-cyclobutyl-7-methyl-1-oxoisoindolin-5-yl)phenyl)methanesulfonamide]",Ki,mGluR2 [2],2.02 nM
same,Kd,mGluR2 [2],4.7 nM
COc1ccccc1Oc1ccc(N(Cc2cccnc2)S(=O)(=O)CC(F)(F)F)cc1 [LY-487379],Diminished [3H]AZ12559322 binding in NHP prefrontal cortex,mGluR2 [4],40–45%
C[C@@H](C1CC1)N1Cc2cc(-c3cc(C(=O)N(C)C)no3)cc(Cl)c2C1=O [AZD8418],Diminished [3H]AZ12559322 binding in NHP prefrontal cortex,mGluR2 [4],40–45%
Cc1cc(-c2nc(CN3CCNCC3)no2)cc2c1C(=O)N(Cc1ccc(OC(F)(F)F)cc1)C2 [AZD8529],Modulation in in situ GTPγS ARG,mGluR2 [5],positive modulation
same,Modulation in in situ GTPγS ARG,mGluR2 [6],positive modulation
"Cc1cc(-c2cccc(NS(C)(=O)=O)c2)cc2c1C(=O)N([C@@H](C)C(F)(F)F)C2 [AZ12592068, (S)-N-(3-(2-(1,1,1-trifluoropropan-2-yl)-7-methyl-1-oxoisoindolin-5-yl)phenyl)methanesulfonamide]",Ki,mGluR2 [2],0.71 nM
same,Kd,mGluR2 [2],2 nM
"Cc1cc(-c2cccc(NS(C)(=O)=O)c2)cc2c1C(=O)N(C(C)C)C2 [[^3H]AZ12559322, [^3H]-N-[3-(2-Isopropyl-7-methyl-1-oxo-2,3-dihydro-1H-isoindol-5-yl)phenyl]methanesulfonamide]",Regional distribution of radioligand binding in rat brain sections,mGluR2 [7],heterogeneous distribution
CC(C)N1Cc2cc(-c3cccc(NS(C)(=O)=O)c3)cc([11CH3])c2C1=O [[^11C]AZ12559322],Brain exposure in PET imaging,mGluR2 [8],low brain uptake
